Assay results taken from the supplement of paper PMC10307832.

What follows are cell lines tested with Cn1c(=O)n(-c2ccc(C(C)(C)C#N)cc2)c2c3cc(-c4cnc5ccccc5c4)ccc3ncc21 [Dactolisib] + Nc1ncn([C@H]2C[C@H](O)[C@@H](CO)O2)c(=O)n1 [Decitabine] (partner 2 µM) (assay: relative viability (nuclei count vs DMSO), 5 days (fraction); higher = more cells survive). Details: first compound 0.002 µM.
In short: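 Relative viability equals treated-well nuclei counts divided by vehicle-well nuclei counts. Counts came from 4× images of lung cancer cell lines grown in 1536-well plates for 5 days after pin-tool dosing on the day after seeding. Dosing used one drug alone or a fixed anchor-drug dose plus five library-drug doses (not always all listed) in √10 steps, and values are medians of duplicate plates.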

Row | Cell Line | relative viability
1 | NCI-H2405 | 0.803
2 | HOP-62 | 0.287
3 | HCC-44 | 1.04
4 | LU99A | 0.906
5 | BEN | 0.802
6 | HARA | 0.708
7 | HCC-78 | 0.834
8 | NCI-H322M | 0.759
9 | LCLC-97TM1 | 0.261
10 | A-427 | 0.605
11 | NCI-H441 | 0.285
12 | NCI-H1734 | 0.542
13 | NCI-H460 | 0.612
14 | NCI-H2347 | 0.682
15 | NCI-H1395 | 0.601
16 | 201T | 0.87

Row | Cell Line | relative viability
17 | NCI-H1915 | 0.291
18 | HCC-827 | 0.387
19 | LXF-289 | 0.455
20 | NCI-H23 | 0.295
21 | NCI-H647 | 0.487
22 | NCI-H1651 | 0.644
23 | EPLC-272H | 0.36
24 | NCI-H1792 | 0.56
25 | NCI-H1355 | 0.382
26 | NCI-H3122 | 0.376
27 | NCI-H1437 | 0.716
28 | NCI-H1755 | 0.87
29 | HCC-15 | 0.626
30 | NCI-H1793 | 0.454
31 | PC-14 | 0.333
32 | EKVX | 0.343

Same assay, conditions: first compound 0.006325 µM

Row | Cell Line | relative viability
33 | NCI-H2405 | 0.76
34 | HOP-62 | 0.238
35 | HCC-44 | 0.976
36 | LU99A | 0.723
37 | BEN | 0.692
38 | HARA | 0.558
39 | HCC-78 | 0.854
40 | NCI-H322M | 0.712
41 | LCLC-97TM1 | 0.24
42 | A-427 | 0.571
43 | NCI-H441 | 0.256
44 | NCI-H1734 | 0.491
45 | NCI-H460 | 0.461
46 | NCI-H2347 | 0.581
47 | NCI-H1395 | 0.69
48 | 201T | 0.864

Row | Cell Line | relative viability
49 | NCI-H1915 | 0.259
50 | HCC-827 | 0.343
51 | LXF-289 | 0.4
52 | NCI-H23 | 0.296
53 | NCI-H647 | 0.292
54 | NCI-H1651 | 0.689
55 | EPLC-272H | 0.364
56 | NCI-H1792 | 0.429
57 | NCI-H1355 | 0.35
58 | NCI-H3122 | 0.369
59 | NCI-H1437 | 0.551
60 | NCI-H1755 | 0.768
61 | HCC-15 | 0.599
62 | NCI-H1793 | 0.319
63 | PC-14 | 0.222
64 | EKVX | 0.313

Same assay, conditions: first compound 0.02 µM

Row | Cell Line | relative viability
65 | NCI-H2405 | 0.687
66 | HOP-62 | 0.215
67 | HCC-44 | 0.937
68 | LU99A | 0.602
69 | BEN | 0.63
70 | HARA | 0.634
71 | HCC-78 | 0.619
72 | NCI-H322M | 0.631
73 | LCLC-97TM1 | 0.23
74 | A-427 | 0.609
75 | NCI-H441 | 0.31
76 | NCI-H1734 | 0.478
77 | NCI-H460 | 0.504
78 | NCI-H2347 | 0.62
79 | NCI-H1395 | 0.667
80 | 201T | 0.808

Row | Cell Line | relative viability
81 | NCI-H1915 | 0.266
82 | HCC-827 | 0.337
83 | LXF-289 | 0.388
84 | NCI-H23 | 0.316
85 | NCI-H647 | 0.188
86 | NCI-H1651 | 0.503
87 | EPLC-272H | 0.317
88 | NCI-H1792 | 0.414
89 | NCI-H1355 | 0.338
90 | NCI-H3122 | 0.415
91 | NCI-H1437 | 0.676
92 | NCI-H1755 | 0.766
93 | HCC-15 | 0.617
94 | NCI-H1793 | 0.266
95 | PC-14 | 0.261
96 | EKVX | 0.284

Same assay, conditions: first compound 0.06325 µM

Row | Cell Line | relative viability
97 | NCI-H2405 | 0.429
98 | HOP-62 | 0.275
99 | HCC-44 | 0.944
100 | LU99A | 0.373
101 | BEN | 0.518
102 | HARA | 0.623
103 | HCC-78 | 0.612
104 | NCI-H322M | 0.661
105 | LCLC-97TM1 | 0.172
106 | A-427 | 0.457
107 | NCI-H441 | 0.233
108 | NCI-H1734 | 0.341
109 | NCI-H460 | 0.252
110 | NCI-H2347 | 0.541
111 | NCI-H1395 | 0.505
112 | 201T | 0.706

Row | Cell Line | relative viability
113 | NCI-H1915 | 0.285
114 | HCC-827 | 0.27
115 | LXF-289 | 0.357
116 | NCI-H23 | 0.263
117 | NCI-H647 | 0.116
118 | NCI-H1651 | 0.327
119 | EPLC-272H | 0.281
120 | NCI-H1792 | 0.186
121 | NCI-H1355 | 0.267
122 | NCI-H3122 | 0.284
123 | NCI-H1437 | 0.569
124 | NCI-H1755 | 0.673
125 | HCC-15 | 0.33
126 | NCI-H1793 | 0.231
127 | PC-14 | 0.161
128 | EKVX | 0.272

Same assay, conditions: first compound 0.2 µM

Row | Cell Line | relative viability
129 | NCI-H2405 | 0.352
130 | HOP-62 | 0.22
131 | HCC-44 | 0.878
132 | LU99A | 0.261
133 | BEN | 0.41
134 | HARA | 0.356
135 | HCC-78 | 0.455
136 | NCI-H322M | 0.608
137 | LCLC-97TM1 | 0.155
138 | A-427 | 0.436
139 | NCI-H441 | 0.203
140 | NCI-H1734 | 0.259
141 | NCI-H460 | 0.134
142 | NCI-H2347 | 0.473
143 | NCI-H1395 | 0.447
144 | 201T | 0.477
145 | NCI-H1915 | 0.251
146 | HCC-827 | 0.294
147 | LXF-289 | 0.399
148 | NCI-H23 | 0.234
149 | NCI-H647 | 0.14
150 | NCI-H1651 | 0.314
151 | EPLC-272H | 0.23
152 | NCI-H1792 | 0.121
153 | NCI-H1355 | 0.253
154 | NCI-H3122 | 0.304
155 | NCI-H1437 | 0.482
156 | NCI-H1755 | 0.536
157 | HCC-15 | 0.208
